The nature of data set [1]: xn = mol fraction of the nth substance listed. The conditions noted are these: 101.3 kPa, Liquid, x1 = 1; for viscosity: Capillary tube (Ostwald / Ubbelohde) method.
For data set [2] the following is noted: 101.3 kPa, Liquid; for viscosity: Capillary tube (Ostwald / Ubbelohde) method.

The structures appear in SMILES notation. Numbers after ± are expanded uncertainties.

In the case of `COCCO` [2-methoxyethan-1-ol] + CCCCN, the results for the viscosity in data set [1] (293.15 K), in data set [1] (298.15 K) and in data set [1] (303.15 K) were 1.708 ± 0.013 mPa·s, 1.544 ± 0.012 mPa·s and 1.404 ± 0.011 mPa·s, respectively. In addition, the speed of sound in data set [1] (298.15 K) is 1344.5 ± 1.1 m/s.
Regarding `CCCCN` [1-butanamine], the viscosity stood at 0.525 ± 0.005 mPa·s in data set [2] (293.15 K), 0.496 ± 0.005 mPa·s in data set [2] (298.15 K) and 0.467 ± 0.005 mPa·s in data set [2] (303.15 K). Besides, in data set [2] (298.15 K), the speed of sound worked out at 1251.6 ± 1.1 m/s.
On the same counts, the results for `COCCO` [2-methoxyethan-1-ol] are 1.708 ± 0.013 mPa·s, 1.544 ± 0.012 mPa·s, 1.404 ± 0.011 mPa·s and 1344.5 ± 1.1 m/s.
